The record followed here is patent US20250041306A1, “TARGETED PROTEASE DEGRADATION (TED) PLATFORM” (EUBULUS BIOTHERAPEUTICS INC., priority 2021, published 2025).

SMILES strings stand for the structures. Read-outs that look alike come from different tables or passages of the source.

Holding throughout (assay type): cell-based
Assay [1] concerns Human Small Cell Lung Cancer NCI-H82. Kind of assay: Cell proliferation experiment (Alarm blue), H82. The procedure:
(§1) The cells were cultured in conventional ways, and the cells should be passed for at least 2 generations before plating. Cells at the logarithmic growth phase were collected, prepared into single cell suspensions and counted. The concentration of cells was adjusted to desired concentration, and cells were inoculated into a 96-well cell culture plate at 100 μl per well. 100 μL of complete medium of the test compound were added to each well, 2 replicate wells for each concentration were set up, and diluted with a 5-fold gradient, and continued to culture for 72 h. All cells were subjected to EC50 test for corresponding samples.
(§2) The fluorescence intensity of each well was detected using the Alarm blue method, and IC50 was calculated.
(§3) IC50 was calculated according to the following formula:
(§4) [formula] • wherein Min, Max and Slope represent the minimum, maximum and slope respectively.

The subject of assay [2] is human gastric carcinoma cells N87. Kind of assay: Cell proliferation experiment (Alarm blue), N87. The procedure: as §1, §2, §3, §4
The test system of assay [3] is Human Colon Cancer cells Colo205. Kind of assay: Cell proliferation experiment (Alarm blue), Colo205. The conditions noted are these: Colo205 cells, 72 h culture, read-out: Anti cell proliferative activity EC50, Colo205. How it is done:
as §1, §2, §3, §4

Assay [4] relates to Human Small Cell Lung Cancer H69. Kind of assay: Cell proliferation experiment (Alarm blue), H69. To be noted: H69 cells, 72 h culture, read-out: Anti cell proliferative activity EC50, H69. How it is done:
as §1, §2, §3, §4

In a further assay the test system is Human Colon Cancer HT-29. Kind of assay: Cell proliferation experiment (Alarm blue), HT-29. The conditions noted are these: HT-29 cells, 72 h culture, read-out: Anti cell proliferative activity EC50, HT-29. How it is done: as §1, §2, §3, §4
Where [5] appears, read: Homo sapiens, NCI-H82, H82 cells, 72 h culture, read-out: Anti cell proliferative activity EC50, H82.
Setting [6] is: Homo sapiens, N87 cells, 72 h culture, read-out: Anti cell proliferative activity EC50, N87.
Setting [7] is: Homo sapiens, NCI-H82, 72 h, H82 cells, 72 h culture, read-out: Anti cell proliferative activity EC50, H82.
Setting [8] is: Homo sapiens, 72 h, N87 cells, 72 h culture, read-out: Anti cell proliferative activity EC50, N87.
[9] abbreviates: H82 cells, 72 h culture, read-out: Anti cell proliferative activity EC50, H82.
The mark [10] stands for this setting: N87 cells, 72 h culture, read-out: Anti cell proliferative activity EC50, N87.

Regarding `CNC(=O)c1ccccc1Nc1nc(Nc2ccc(N3CCN(C(=O)NC4CCN(C(=O)CNCCC#Cc5ccc6c(c5)CN(C5CCC(=O)NC5=O)C6=O)CC4)CC3)cc2)ncc1Cl` (centres unmarked) [UB-181235], the EC50 in assay [1] (setting [5]) is 253 nM; in assay [2] (setting [6]) it was 813 nM; in assay [3] (Homo sapiens, COLO 205), 144 nM; in assay [4] (Homo sapiens, NCI-H69), over 1000 nM.
Take `NC(=O)c1ccccc1Nc1nc(Nc2ccc(N3CCN(C(=O)NC4CCN(C(=O)CNCCC#Cc5ccc6c(c5)CN(C5CCC(=O)NC5=O)C6=O)CC4)CC3)cc2)ncc1Cl` (centres unmarked) [UB-181236]: the EC50 in assay [1] (setting [7]) is 603 nM; in assay [2] (setting [8]) it was 92.5 nM; in assay [3] (Homo sapiens, COLO 205, 72 h), 146 nM; in assay [4] (Homo sapiens, NCI-H69), over 1000 nM.
In the case of `CNC(=O)c1ccccc1Nc1nc(Nc2ccc(N3CCN(C(=O)N[C@H]4CC[C@@H](N(CCC#Cc5ccc6c(c5)CN(C5CCC(=O)NC5=O)C6=O)C(=O)OCc5ccc(NC(=O)[C@H](CC(N)=O)NC(=O)[C@H](C)NC(=O)[C@H](C)NC(=O)COCCOC)cc5)CC4)CC3)cc2)ncc1Cl` (some centres unmarked) [UB-181237], the half-maximal effective concentration (EC50) in assay [1] (setting [5]) is 141 nM; in assay [2] (setting [6]), 308 nM; in assay [3] (Homo sapiens, COLO 205), 277 nM; in assay [4] (Homo sapiens, NCI-H69), over 1000 nM; in the assay with Human Colon Cancer HT-29 (Homo sapiens) it was 902 nM.
With `CC[C@H]1C(=O)N(C)c2cnc(Nc3ccc(-c4cn([C@H]5CC[C@@H](N(CCOCCC#Cc6cccc7c6CN(C6CCC(=O)NC6=O)C7=O)C(=O)OCc6ccc(NC(=O)[C@H](CCCNC(N)=O)NC(=O)[C@@H](NC(=O)CCOCCOCCOCCOCCOCCOCCOCCOCCNC(=O)CCN7C(=O)C=CC7=O)C(C)C)cc6)CC5)nn4)cc3OC)nc2N1C1CCCC1` (some centres unmarked) [UB-181238], the EC50 in assay [1] (72 h) and in assay [2] (72 h) was over 1000 nM in each case.
In the case of `NC(=O)c1ccccc1Nc1nc(Nc2ccc(N3CCN(C(=O)NC4CCN(C(=O)CNCCC#Cc5ccc6c(c5)CN(C5CCC(=O)NC5=O)C6=O)CC4)CC3)cc2)ncc1Cl` (centres unmarked) [UB-181239], the EC50 in assay [1] (setting [9]) is 354 nM; in assay [2] (setting [10]), 132 nM; in assay [3], 175 nM; in assay [4], over 1000 nM.
In the case of `CNC(=O)c1ccccc1Nc1nc(Nc2ccc(N3CCN(C(=O)NC4CCN(CCNCCC#Cc5ccc6c(c5)CN(C5CCC(=O)NC5=O)C6=O)CC4)CC3)cc2)ncc1Cl` (centres unmarked) [UB-181240], the EC50 is 37 nM in assay [1] (setting [7]); 92 nM in assay [2] (setting [8]); 40.1 nM in assay [3] (Homo sapiens, COLO 205, 72 h); over 1000 nM in assay [4] (Homo sapiens, NCI-H69); 181 nM in the assay with Human Colon Cancer HT-29 (Homo sapiens).
On to `CNC(=O)c1ccccc1Nc1nc(Nc2ccc(N3CCN(C(=O)N[C@H]4CC[C@@H](N(CCC#Cc5ccc6c(c5)CN(C5CCC(=O)NC5=O)C6=O)C(=O)OCc5ccc(NC(=O)[C@H](CC(N)=O)NC(=O)[C@H](C)NC(=O)[C@H](C)NC(=O)COCCOCCOCCOC)cc5)CC4)CC3)cc2)ncc1Cl` (some centres unmarked) [UB-181242], for which the EC50 in assay [1] (setting [5]) is 94.2 nM; in assay [2] (setting [6]) it was 226 nM; in assay [3] (Homo sapiens, COLO 205), 75.2 nM; in assay [4] (Homo sapiens, NCI-H69), over 1000 nM; with Human Colon Cancer HT-29 (Homo sapiens), over 1000 nM.
Take `CNC(=O)c1ccccc1Nc1nc(Nc2ccc(N3CCN(C(=O)N[C@H]4CC[C@@H](N(CCC#Cc5ccc6c(c5)CN(C5CCC(=O)NC5=O)C6=O)C(=O)OC(C)C(C)SSC[C@H](N)C(=O)N[C@H](Cc5ccccc5)C(=O)N[C@H]5CSSC[C@@H](C(=O)N[C@H](CO)[C@@H](C)O)NC(=O)[C@H]([C@@H](C)O)NC(=O)[C@H](CCCCN)NC(=O)[C@@H](Cc6c[nH]c7ccccc67)NC(=O)[C@H](Cc6ccccc6)NC5=O)CC4)CC3)cc2)ncc1Cl` (some centres unmarked) [UB-181243]: the EC50 is 240 nM in assay [1] (setting [9]); 668 nM in assay [2] (setting [10]); 311 nM in assay [3]; over 1000 nM in assay [4]; over 1000 nM in the assay with Human Colon Cancer HT-29.
Regarding `CNC(=O)c1ccccc1Nc1nc(Nc2ccc(N3CCN(C(=O)N[C@H]4CC[C@@H](N(CCC#Cc5ccc6c(c5)CN(C5CCC(=O)NC5=O)C6=O)C(=O)OCc5ccc(NC(=O)[C@H](CCCNC(N)=O)NC(=O)[C@@H](NC(=O)CCCCCN6C(=O)CC(SC[C@H](N)C(=O)N[C@H](Cc7ccccc7)C(=O)N[C@H]7CSSC[C@@H](C(=O)N[C@H](CO)[C@@H](C)O)NC(=O)[C@H]([C@@H](C)O)NC(=O)[C@H](CCCCN)NC(=O)[C@@H](Cc8c[nH]c9ccccc89)NC(=O)[C@H](Cc8ccccc8)NC7=O)C6=O)C(C)C)cc5)CC4)CC3)cc2)ncc1Cl` (some centres unmarked) [UB-181246], the EC50 in assay [1] (setting [9]) is 298 nM; in assay [2] (setting [10]), 515 nM; in assay [3] it was 236 nM; in assay [4] it was over 1000 nM; in the assay with Human Colon Cancer HT-29, over 1000 nM.
As for `CNC(=O)c1ccccc1Nc1nc(Nc2ccc(N3CCN(C(=O)NC4CCC(N(CCC#Cc5ccc6c(c5)CN(C5CCC(=O)NC5=O)C6=O)C(=O)OCc5ccc(NC(=O)[C@H](CC(N)=O)NC(=O)[C@H](C)NC(=O)[C@H](C)NC(=O)CCCCCN6C(=O)CC(SC[C@H](N)C(=O)N[C@H](Cc7ccccc7)C(=O)N[C@H]7CSSC[C@@H](C(=O)N[C@H](CO)[C@@H](C)O)NC(=O)[C@H]([C@@H](C)O)NC(=O)[C@H](CCCCN)NC(=O)[C@@H](Cc8c[nH]c9ccccc89)NC(=O)[C@H](Cc8ccccc8)NC7=O)C6=O)cc5)CC4)CC3)cc2)ncc1Cl` (some centres unmarked) [UB-181247], the EC50 in assay [1] (setting [9]) was 91.4 nM; in assay [2] (setting [10]) it was 168 nM; in assay [3], 169 nM; in assay [4] it was over 1000 nM; with Human Colon Cancer HT-29 it was over 1000 nM.
As for `CNC(=O)c1ccccc1Nc1nc(Nc2ccc(N3CCC(C(=O)N4CCC5(CC4)CC(NCCC#Cc4ccc6c(c4)CN(C4CCC(=O)NC4=O)C6=O)C5)CC3)cc2)ncc1Cl` (centres unmarked) [UB-181249], the concentration giving a half-maximal response (EC50) was 386 nM in assay [1] (setting [7]); 66.1 nM in assay [2] (setting [8]); 52 nM in assay [3] (Homo sapiens, COLO 205, 72 h); over 1000 nM in assay [4] (Homo sapiens, NCI-H69).
For `CNC(=O)c1ccccc1Nc1nc(Nc2ccc(N3CCN(C(=O)N[C@H]4C[C@@H](NCCC#Cc5ccc6c(c5)CN(C5CCC(=O)NC5=O)C6=O)C4)CC3)cc2)ncc1Cl` (some centres unmarked) [UB-181250] the same measures were 53.7 nM, 20.5 nM, 48.2 nM and over 1000 nM.
In the same order, the values of `NC(=O)c1ccccc1Nc1nc(Nc2ccc(N3CCN(C(=O)N[C@H]4CC[C@@H](NC5CN(CCC#Cc6ccc7c(c6)CN(C6CCC(=O)NC6=O)C7=O)C5)CC4)CC3)cc2)ncc1Cl` (some centres unmarked) [UB-181251] are 32.4 nM, 71.9 nM, 133 nM and over 1000 nM.
For `CNC(=O)c1ccccc1Nc1nc(Nc2ccc(N3CCN(C(=O)N[C@H]4C[C@@H](NCC#Cc5ccc6c(c5)CN(C5CCC(=O)NC5=O)C6=O)C4)CC3)cc2)ncc1Cl` (some centres unmarked) [UB-181257] the same measures were 42.3 nM, 71.8 nM, 59.4 nM and over 1000 nM.
As to `NC(=O)c1ccccc1Nc1nc(Nc2ccc(N3CCN(C(=O)N[C@H]4C[C@H](NCCC#Cc5ccc6c(c5)CN(C5CCC(=O)NC5=O)C6=O)C4)CC3)cc2)ncc1Cl` (some centres unmarked) [UB-181261], the EC50 stood at 24.9 nM in assay [1] (setting [7]); 23.6 nM in assay [2] (setting [8]); 24.8 nM in assay [3] (Homo sapiens, COLO 205, 72 h); 61.2 nM in assay [4] (Homo sapiens, NCI-H69).
Turning to `C[C@H](NC(=O)CCCCCN1C(=O)C=CC1=O)C(=O)N[C@@H](C)C(=O)N[C@@H](CC(N)=O)C(=O)Nc1ccc(COC(=O)N(CCC#Cc2ccc3c(c2)CN(C2CCC(=O)NC2=O)C3=O)C2CCC(NC(=O)N3CCN(c4ccc(Nc5ncc(Cl)c(Nc6ccccc6C(N)=O)n5)cc4)CC3)CC2)cc1` (some centres unmarked) [UB-181295], the EC50 was found to be 106 nM in assay [1] (setting [5]); 136 nM in assay [3] (Homo sapiens, COLO 205); 953 nM in assay [4] (Homo sapiens, NCI-H69); 484 nM with Human Colon Cancer HT-29 (Homo sapiens).
